Experimental findings from patent US20080279795A1, “Tertiary Amine Functional Complex Polyester Polymers And Methods Of Production And Use” (priority 2003, published 2008) are described below.

Data set [1] concerns EpiOccular® model made of human-derived epidermal keratinocytes cultured to make them similar to human corneal tissue. Type of data set: cell-based. As for the experimental part: Irritancy to the eyes and to the skin was tested in-vitro using the EpiDerm® and EpiOccular® test models. EpiDerm® is a human test model of skin made up of normal epidermal keratinocytes. The EpiOccular® model is made of human-derived epidermal keratinocytes cultured to make them similar to human corneal tissue. In each of the tests, tissue samples are treated with the test article for various exposure times. Following treatment, the viability of the tissue is determined using MTT uptake and conversion, and the absorbance of the sample is measured at 540 nanometers (nm) wavelength using a reference wavelength of 690 nm. The viability is expressed as a percentage of control values. The mean percentage viability for each time point is used to calculate the ET50, which represents the time at which the tissue viability is reduced 50% compared to control tissue. […] Typically, higher molecular weight results in lower eye and skin irritancy.

The nature of data set [2]: Rubine Dye test for substantivity on hair (chromameter). As to conditions: Example 3, second matrix of prototypes. From the text:
The substrate (i.e., surface to which they are applied) in cosmetic applications is either the hair or the skin. […] Cationic conditioning agents act by binding a moiety, typically a long chain alkyl group, to the hair or skin by electrostatic attraction (ionic bonding), but also, weaker forces such as dipole-dipole interactions, and furthermore van der Waals forces can assist in substrate binding. Substantivity is a term used to describe how well a conditioning agent binds to the surface of the substrate. Substantivity of hair conditioning agents is often determined by performing the Rubine Dye test. The Rubine Dye test is designed to show how much of the conditioning ingredient adheres to the hair. Results from the Rubine Dye test are normally evaluated by comparison to some known standard or benchmark.
The polyesteramine prototypes were tested internally for substantivity using the Rubine Dye test protocol. In the Rubine Dye test, the prototypes were benchmarked against Dehyquart® L-80 (dicocoylethyl hydroxyethylmonium methosulfate (and) propylene glycol), a commercial ester quaternary. The materials and equipment used in performing the Rubine Dye analysis were:
The protocol used to perform the Rubine Dye analysis on polyesteramine prototypes and Dehyquart® L-80 and the compositions of ingredients used is described below.
First, a stock dye solution was prepared using the following formula and preparation procedure: […]
In a small vessel, deionized water, Lumicrease Bordeaux 3LR Powder, and glacial acetic acid were agitated at about 20 to about 25° C. until a solution was obtained. […]
From about 0.95 to about 1.05 grams of hair was weighed out and glued onto pre-cut plastic sheets (1.5″×1.5″) using a hot glue gun to attach the swatches to the sheets. […] Quantitative comparisons of dye up-take and relative substantivity of each polymer were performed using a Minolta chromameter. Additionally, dye up-take was evaluated qualitatively by taking photographs of the hair swatches using a digital camera. […]

In the case of `CCCCCCCCCCCCCCCC[N+](C)(C)C.[Cl-]` [cetrimonium chloride], in data set [1] (exposure times 16, 64 and […], time at which tissue viability is reduced 50% vs control), the “EpiOcular ® ET50” value came to 116.9 min. Moreover, the “irritancy classification, eyes” value in data set [1] (from EpiOcular ET50) is listed as “more irritating”.
In data set [2] (higher a = more deposition), `CCCCCCCCCCCCCCCCCC(=O)NCCCN(C)C` [Lexamine ® S-13, stearamidopropyldimethylamine] registered an a-scale value of 19.16. The same compound came in with a L-scale value in data set [2] (lower L = more deposition) of 65.15. The same compound had a b-scale value in data set [2] (lower b = more deposition) of 8.57.
